Measurements from patent publication US6350749B1, “Aminoguanidine hydrazone derivatives, process for producing the same and drugs thereof” (Takeda Chemical Industries, Ltd., priority 1998, dated 2002).

Cl.N=C(N)N/N=C1\CC(c2ccccc2)Cc2occ(C(F)(F)F)c21 (centres unmarked)
melting point: 291 °C (dec.)

Cc1ccc(F)cc1C1CC(=NNC(=N)N)c2c(C)ccnc2C1.Cl (centres unmarked)
melting point: 202 to 205 °C

Cc1cn(S(C)(=O)=O)c2c1C(=NNC(=N)N)CC(c1ccccc1)C2.Cl (centres unmarked)
melting point: 260 °C (dec.)

Cc1ccc(C2CC(=NNC(=N)NO)c3c(C)ccnc3C2)s1.Cl (centres unmarked)
melting point: 210 to 212 °C (dec.)

COc1ccc(Cl)cc1C1CC(=NNC(=N)N)c2c(C)ccnc2C1.Cl (centres unmarked)
melting point: 205 to 209 °C

Cc1ccccc1C1CC(=NNC(=N)N)c2c(C)n[nH]c2C1.Cl (centres unmarked)
melting point: 211 °C (dec.)

Cc1ccccc1C1CC(=NNC(=N)N)c2c(C)cn(S(C)(=O)=O)c2C1.Cl (centres unmarked)
melting point: 228 to 230 °C

Cc1ccc(C)c(C2CC(=NNC(=N)NO)c3c(C)ccnc3C2)c1.Cl (centres unmarked)
melting point: 190 to 192 °C (dec.)

Cc1cnnc2c1C(=NNC(=N)NO)CC(c1cc(Cl)sc1Cl)C2.Cl (centres unmarked)
melting point: 176 to 178 °C

Cc1cnnc2c1C(=NNC(=N)NO)CC(c1ccccc1Cl)C2.Cl (centres unmarked)
melting point: 210 °C (dec.)

Cc1coc2c1/C(=N/NC(=N)N)CC(c1ccco1)C2.Cl (centres unmarked)
melting point: ≥ 300 °C

Cc1ccnc2c1C(=NNC(=N)N)CC(c1ccsc1)C2.Cl (centres unmarked)
melting point: ≥ 300 °C

Cc1n[nH]c2c1C(=NNC(=N)N)CC(c1cc(Cl)ccc1Cl)C2.Cl (centres unmarked)
melting point: 287 °C (dec.)

Cc1ccc(Cl)c(C2CC(=NNC(=N)N)c3c(C)cnnc3C2)c1.Cl (centres unmarked)
melting point: 240 to 242 °C

CS(=O)(=O)O.Cc1ccnc2c1C(=NNC(=N)N)CC(c1cc(Cl)ccc1Cl)C2 (centres unmarked)
melting point: 248 °C (dec.)

Cl.N=C(N)N/N=C1\CC(c2ccc(F)cc2)Cc2occ(C(F)(F)F)c21 (centres unmarked)
melting point: 283 °C (dec.)

Cl.N=C(N)N/N=C1\CC(c2ccco2)Cc2occ(C(F)(F)F)c21 (centres unmarked)
melting point: 282 °C (dec.)

Cc1ccc(S(=O)(=O)n2ccc3c2CC(c2ccccc2)CC3=NNC(=N)N)cc1.Cl (centres unmarked)
melting point: 252 to 256 °C

Cc1coc2c1C(=NNC(=N)N)CC(c1ccc(Br)cc1)C2.Cl (centres unmarked)
melting point: 235 °C (dec.)

Cc1ccnc2c1C(=NNC(=N)NO)CC(c1c(Cl)cccc1Cl)C2.Cl (centres unmarked)
melting point: 193 to 195 °C (dec.)

Cc1ccccc1C1=CC(=NNC(=N)N)c2c(C)ccnc21.Cl
melting point: 203 to 204 °C (dec.)

Cc1ccnc2c1C(=NNC(=N)N)CC(c1cc(Cl)sc1Cl)C2.Cl (centres unmarked)
melting point: ≥ 300 °C

Cc1cc(C)c2c(n1)CC(c1ccccc1F)CC2=NNC(=N)N.Cl (centres unmarked)
melting point: 232 °C (dec.)

Cc1ccnc2c1C(=NNC(=N)N)CC(c1cc(Cl)sc1Cl)C2.O=[N+]([O-])O (centres unmarked)
melting point: 167 °C (dec.)

Cl.Cn1ccc2c1CC(c1ccccc1)CC2=NNC(=N)N (centres unmarked)
melting point: 205 °C (dec.)

Cl.N=C(N)N/N=C1\CC(c2ccccc2Br)Cc2occ(C(F)(F)F)c21 (centres unmarked)
melting point: 289 °C (dec.)

Cc1ccnc2c1C(=NNC(=N)NO)CC(c1cc(Br)sc1Br)C2.Cl (centres unmarked)
melting point: 194 to 196 °C (dec.)

Cc1ccc(C)c(C2C/C(=N\NC(=N)N)c3c(C)coc3C2)c1.Cl (centres unmarked)
melting point: 235 to 236 °C

Cc1cn(C)c2c1C(=NNC(=N)N)CC(c1ccccc1)C2.Cl (centres unmarked)
melting point: 230 °C (dec.)

Cc1ccnc2c1C(=NNC(=N)N)CC(c1cc(Cl)sc1Cl)C2.O=S(=O)(O)O (centres unmarked)
melting point: 239 to 242 °C

Cc1c[n+]([O-])nc2c1C(=NNC(=N)N)CC(c1ccccc1Cl)C2.Cl (centres unmarked)
melting point: 249 to 250 °C

Cl.N=C(N)NN=C1CC(c2ccccc2)Cc2[nH]c(=O)ccc21 (centres unmarked)
melting point: ≥ 300 °C

Cc1cn(S(C)(=O)=O)c2c1C(=NNC(=N)N)CC(c1ccccc1F)C2.Cl (centres unmarked)
melting point: 286 °C (dec.)

Cc1ccc(C)c(C2CC(=NNC(=N)N)c3c(C)ccnc3C2)c1.Cl (centres unmarked)
melting point: 260 to 262 °C

Cc1ccc(C2CC(=NNC(=N)N)c3c(C)ccnc3C2)s1.Cl (centres unmarked)
melting point: 271 to 273 °C

Cc1nc(C)c2c(n1)CC(c1ccccc1Cl)C/C2=N\NC(=N)N.Cl (centres unmarked)
melting point: 242 to 244 °C

Cc1ccccc1C1CC(=NNC(=N)N)c2c(C(F)(F)F)coc2C1.Cl (centres unmarked)
melting point: 247 °C (dec.)

COc1ccc(F)cc1C1CC(=NNC(=N)N)c2c(C)ccnc2C1.Cl (centres unmarked)
melting point: ≥ 300 °C

CS(=O)(=O)O.N=C(N)NN=C1CC(c2ccccc2Cl)Cc2nncc(C(F)(F)F)c21 (centres unmarked)
melting point: 207 to 208 °C

CS(=O)(=O)n1ccc2c1CC(c1ccccc1)CC2=NNC(=N)N.Cl (centres unmarked)
melting point: 270 °C (dec.)

Cc1ccc(C2CC(=NNC(=N)N)c3c(C)coc3C2)cc1.Cl (centres unmarked)
melting point: 260 °C (dec.)

COCc1n[nH]c2c1C(=NNC(=N)N)CC(c1ccccc1Cl)C2.Cl (centres unmarked)
melting point: 210 to 212 °C

Cc1ccnc2c1C(=NNC(=N)N)CC(c1c(Cl)cccc1Cl)C2.Cl (centres unmarked)
melting point: ≥ 300 °C

Cl.N=C(N)NN=C1CC(c2ccccc2Cl)Cc2[nH]nc(-c3ccccc3)c21 (centres unmarked)
melting point: 185 °C (dec.)

Cc1ncnc2c1/C(=N/NC(=N)N)CC(c1ccccc1Cl)C2.Cl (centres unmarked)
melting point: 284 °C (dec.)

Cc1c2c(nn1-c1ccccc1)CC(c1ccccc1Cl)CC2=NNC(=N)N.Cl (centres unmarked)
melting point: 192 to 194 °C

Cc1ccnc2c1C(=NNC(=N)NO)CC(c1ccco1)C2.Cl (centres unmarked)
melting point: 196 to 198 °C (dec.)

Cl.N=C(N)NN=C1CC(c2ccccc2Cl)Cc2[nH]nc(Nc3ccccc3)c21 (centres unmarked)
melting point: 208 to 210 °C

Cc1c2c(nn1CCCc1ccccc1)CC(c1ccccc1Cl)CC2=NNC(=N)N.Cl (centres unmarked)
melting point: 170 to 180 °C

Cc1coc2c1/C(=N/NC(=N)N)CC(c1ccc(F)cc1)C2.Cl (centres unmarked)
melting point: 277 °C (dec.)

Cc1ccnc2c1C(=NNC(=N)NO)CC(c1ccsc1)C2.Cl (centres unmarked)
melting point: 201 to 202 °C (dec.)

Cc1coc2c1C(=NNC(=N)N)CC(c1ccc(F)cc1F)C2.Cl (centres unmarked)
melting point: 278 °C (dec.)

Cc1ccnc2c1C(=NNC(=N)NO)CC(c1cccc(Cl)c1Cl)C2.Cl (centres unmarked)
melting point: 196 to 198 °C (dec.)

Cc1ccc(Cl)cc1C1CC(=NNC(=N)N)c2c(C)ccnc2C1.Cl (centres unmarked)
melting point: 215 to 220 °C

Cc1nn(Cc2ccccc2)c2c1C(=NNC(=N)N)CC(c1ccccc1Cl)C2.Cl (centres unmarked)
melting point: 151 to 153 °C

COc1ccccc1C1CC(=NNC(=N)N)c2c(C)n[nH]c2C1.Cl (centres unmarked)
melting point: 202 °C (dec.)

Cc1ccccc1C1CC(=NNC(=N)N)c2c(C)coc2C1.Cl (centres unmarked)
melting point: 266 °C (dec.)

Cc1cnnc2c1C(=NNC(=N)N)CC(c1cc(Cl)ccc1Cl)C2.Cl (centres unmarked)
melting point: 256 to 258 °C

Cc1c[nH]c2c1C(=NNC(=N)N)CC(c1ccccc1)C2.Cl (centres unmarked)
melting point: 176 °C (dec.)

Cc1ccc(F)cc1C1CC(=NNC(=N)N)c2c(C)cnnc2C1.Cl (centres unmarked)
melting point: 240 °C (dec.)

Cc1coc2c1/C(=N/NC(=N)N)CC(c1cccc(Br)c1)C2.Cl (centres unmarked)
melting point: 285 °C (dec.)

CCOC(=O)c1coc2c1/C(=N/NC(=N)N)CC(c1ccccc1Cl)C2.Cl (centres unmarked)
melting point: 277 °C (dec.)

Cc1coc2c1C(=NNC(=N)N)CC(c1ccccc1)C2.Cl (centres unmarked)
melting point: 250 °C (dec.)

CS(=O)(=O)O.Cc1ccnc2c1C(=NNC(=N)N)CC(c1cc(Cl)sc1Cl)C2 (centres unmarked) [Compound 111]
melting point: 225 to 229 °C

Cl.N=C(N)N/N=C1\CC(c2ccccc2)Cc2occ(C(N)=O)c21 (centres unmarked)
melting point: 294 °C (dec.)

Cc1ccnc2c1C(=NNC(=N)NO)CC(c1cc(Cl)sc1Cl)C2.Cl (centres unmarked)
melting point: 196 to 197 °C (dec.)

CCc1c[nH]c2c1C(=NNC(=N)N)CC(c1ccccc1)C2.Cl (centres unmarked)
melting point: 158 to 160 °C

Cl.N=C(N)NN=C1CC(c2ccccc2)Cc2c1ccn2Cc1ccccc1 (centres unmarked)
melting point: 142 °C (dec.)
